# Assay results: patent publication US7744927B2, “Methods of promoting hematopoietic and mesenchymal cell proliferation and differentiation” (University of Southern California, priority 1997, dated 2010)
# Assays:
# [1] = test system: human peripheral blood mononuclear cells (PBMC); assay: Respiratory burst (hydrogen peroxide generation), human PBMC; format: cell-based; details: alone and in response to PMA 10 ng/ml; 4 hours exposure
# Description: The respiratory burst of leukocytes (macrophages and polymorphonuclear neutrophils) is one component of the mediator system used to kill bacteria. As with phagocytosis, the level of this respiratory burst activity in resident macrophages is low. […] Studies were conducted to assess the effect of in vitro exposure of murine or rat peritoneal macrophages and human peripheral blood mononuclear cells (PBMC) to various concentrations of AII on the capacity to generate hydrogen peroxide via the respiratory burst system. For the human studies, five different donors were examined.
# The murine or rat peritoneal cells were harvested by lavage with 5-15 ml of cold PBS with 0.5% bovine serum albumin. The human PBMC were harvested by venipuncture from normal human volunteers and isolated from peripheral blood by Ficoll Hypaque density centrifugation. After isolation, the cells were resuspended at 1×10^6 cells/ml and placed at 100 μl per well into 96 well plates. The cells were incubated with various concentrations of AII or AII analogues for 4 hours at 37° C. The cells were then preloaded with a fluorescent probe for hydrogen peroxide, 2,7 dichlorofluorescein acetate, which is nonfluorescent in the absence of hydrogen peroxide. Fifteen minutes later, 10 ng/ml of phorbol myristate acetate (+PMA) or PBS (−PMA) was added to stimulate the production of hydrogen peroxide. One hour after stimulation the level of fluorescence produced was measured on a Cytofluor 2350 multiwell fluorometer.
# Human PBMC = assay: Proliferation of human PBMC, 3H-thymidine incorporation with or without pokeweed mitogen; format: cell-based; details: for Stimulation Index (SI): stimulated counts / counts without mitogen
# Description: Upon stimulation of lymphocytes with mitogen or antigen, these cells undergo blastogenesis and proliferation. In the absence of such stimuli, proliferation is seldom observed. One method to measure cellular proliferation in a short term assay is via measurement of the amount of the nucleotide thymidine that is incorporated into newly synthesized DNA. The effect of AII on the proliferation of human PBMC in the presence and absence of pokeweed mitogen (“PWM”) was assessed.
# Human PBMC were collected from normal volunteers and isolated via Ficoll Hypaque (Sigma Chemical, St. Louis) density centrifugation. After isolation of the buffy coat, the cells were washed 3× to remove the Ficoll Hypaque, counted in trypan blue (0.01%) and resuspended at a concentration of 1×10^6 cells/ml in RPMI 1640 containing 10% fetal calf serum and antibiotics. A 100 μl aliquot of cells was added to each well. Thereafter, various concentrations (0.1 to 1000 μg/ml final concentration) of AII in RPMI 1640 containing 10% FCS and antibiotics were added to various wells in triplicate. To the appropriate wells, PWM (20 μg/ml final concentration) was added. These plates were incubated at 37° C. in 5% CO2 for 48 hours. Subsequently, 0.5 μCi of ^3H-thymidine was added to each well, which were incubated at 37° C. for an additional 24 hours prior to harvest by a multiwell automated sample harvester (Skatron) onto glass fiber filters. These filters were dried, placed in scintillation fluid and the amount of thymidine incorporated was determined by beta counting.
# murine HPC = assay: Murine HPC colony formation in semi-solid culture with colony stimulating factors; format: cell-based, C57B1/6 mice; details: for macroscopic colonies: day 14, enriched HPC from untreated (normal) mice
# Description: HPC were harvested from C57B1/6 mice by immunomagnetic affinity chromatography and placed in semi-solid cultures with optimal growth medium. At various times after initiation of culture, the formation of colonies and the size of the colonies (number of cells/colony) was assessed microscopically.
# Female C57B1/6 mice were purchased from Simonson and used as a source of bone marrow cells in this study. The bone marrow was harvested, either from untreated mice or from mice injected with 5-fluorouracil (5-FU) (3 mg/mouse; approximately 150 mg/kg) in the tail vein 48 hours before harvest, from the femur and tibia of mice by flushing with phosphate buffered saline (PBS), pH 7.4, containing 2% fetal bovine serum (FBS) with a 21-gauge needle. The eluant from the flushing was centrifuged and the pellet was resuspended at 4×10^7 nucleated cells/ml in PBS containing PBS containing 2% FBS and 5% normal rat serum.
# The reagents for immunomagnetic labeling were purchased from Stem Cell Technologies, Inc. (Vancouver, BC). Biotin-labeled monoclonal antibodies to the following murine lineage-specific cell surface antigens were included in a cocktail for HPC enrichment and used according to the manufacturer's instructions: CD5 (Ly-1), CD45-R (B220), CD11b (Mac-1), Myeloid Differentiation Antigen (Gr-1) and Erythroid Cells (TER 119) Ten μl of antibody cocktail was added for each of the 2 sets of bone marrow (normal and 5-FU-treated), mixed and allowed to incubate at 4° C. for 15 minutes. The cells were then resuspended at 4×10^7 cells/ml in PBS containing 2% FBS. The antibody cocktail was then washed out and 100 μl anti-biotin tetramer was added for each ml of cells. The suspension was mixed and incubated at 4° C. for 15 minutes. Sixty μl of magnetic colloid was then added for each ml of cells, the combination was mixed and incubated at 4° C. for 15 minutes to yield the immunomagnetically-labeled bone marrow cells.
# A column containing a stainless steel matrix was prepared by washing the matrix with PBS followed by washing with PBS containing 2% protein. […]
# [2] = test system: chick chorioallantoic membrane; details: in vivo; cited from earlier work
substance,measurement,setting,value
"Asp-Arg-Val-Tyr-Ile-His-Pro-Phe [AII, known pressor agent, commercially available]",ability to generate hydrogen peroxide (respiratory burst),[1],increased the ability of leukocytes to generate hydrogen peroxide
same,Stimulation Index (SI),"Human PBMC; AII Concentration 0.1, Experiment 1 (donor 1)",3.54
same,Stimulation Index (SI),"Human PBMC; AII Concentration 0.1, Experiment 2 (donor 2)",38.13
same,cpm 3H-Thymidine Incorporated,"Human PBMC; AII Concentration 0.1, PWM, Experiment 1 (donor 1)",1329.0 cpm
same,cpm 3H-Thymidine Incorporated,"Human PBMC; AII Concentration 0.1, PWM, Experiment 2 (donor 2)",2135.0 cpm
same,Stimulation Index (SI),"Human PBMC; AII Concentration 1, Experiment 1 (donor 1)",5.88
same,Stimulation Index (SI),"Human PBMC; AII Concentration 1, Experiment 2 (donor 2)",62.42
same,cpm 3H-Thymidine Incorporated,"Human PBMC; AII Concentration 1, PWM, Experiment 1 (donor 1)",1411.2 cpm
same,cpm 3H-Thymidine Incorporated,"Human PBMC; AII Concentration 1, PWM, Experiment 2 (donor 2)",2996.0 cpm
same,Stimulation Index (SI),"Human PBMC; AII Concentration 10, Experiment 1 (donor 1)",5.34
same,Stimulation Index (SI),"Human PBMC; AII Concentration 10, Experiment 2 (donor 2)",75.88
same,cpm 3H-Thymidine Incorporated,"Human PBMC; AII Concentration 10, PWM, Experiment 1 (donor 1)",1427.0 cpm
same,cpm 3H-Thymidine Incorporated,"Human PBMC; AII Concentration 10, PWM, Experiment 2 (donor 2)",3946.0 cpm
same,Stimulation Index (SI),"Human PBMC; AII Concentration 100, Experiment 1 (donor 1)",11.41
same,Stimulation Index (SI),"Human PBMC; AII Concentration 100, Experiment 2 (donor 2)",69.39
same,cpm 3H-Thymidine Incorporated,"Human PBMC; AII Concentration 100, PWM, Experiment 1 (donor 1)",1552.1 cpm
same,cpm 3H-Thymidine Incorporated,"Human PBMC; AII Concentration 100, PWM, Experiment 2 (donor 2)",3747.0 cpm
same,Stimulation Index (SI),"Human PBMC; AII Concentration 1000, Experiment 1 (donor 1)",15.48
same,Stimulation Index (SI),"Human PBMC; AII Concentration 1000, Experiment 2 (donor 2)",89.63
same,cpm 3H-Thymidine Incorporated,"Human PBMC; AII Concentration 1000, PWM, Experiment 1 (donor 1)",1551.5 cpm
same,cpm 3H-Thymidine Incorporated,"Human PBMC; AII Concentration 1000, PWM, Experiment 2 (donor 2)",4302.0 cpm
same,thymidine incorporated in response to PWM,"Human PBMC; PWM 20 μg/ml, two donors",increase the amount of thymidine incorporated
same,thymidine incorporation,Human PBMC; absence of mitogen,no increase in thymidine incorporation
same,HPC colony size / HPC proliferation,"murine HPC; 0 to 100 μg/ml, normal and 5-FU treated bone marrow",HPC colony size increases proportionately
same,macroscopic colonies,murine HPC; 10 μg/ml,18
same,macroscopic colonies,murine HPC; 100 μg/ml,10
same,angiogenic activity,[2],angiogenic
